Measured values published in US12492173B2, “Herbicidal substituted N-tetrazolyl aryl carboxamides” (Bayer Aktiengesellschaft, priority 2019, dated 2025).

What was measured:
Format in all cases: in vivo
Abutilon theophrasti [1] = test: Pre-emergence herbicidal action, ABUTH; set-up: key to Herbicidal action against ABUTH: % activity: 100 = plants have died, 0 = like control plants; details: comparative experiment
Method in brief: (§1)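 Pre-emergence soil spray over sandy loam-covered seeds; greenhouse 3 weeks; % visual damage (0% = control, 100% = dead).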

Alopecurus myosuroides [2] = test: Pre-emergence herbicidal action, ALOMY; set-up: key: % activity: 100 = plants have died, 0 = like control plants; details: comparative experiment
Source text: (§2) 1. Pre-Emergence Herbicidal Action Against Harmful Plants Seeds of monocotyledonous and dicotyledonous weed plants and crop plants are laid out in sandy loam soil in wood-fiber pots and covered with soil. The compounds of the invention, formulated in the form of wettable powders (WP) or as emulsion concentrates (EC), are then applied to the surface of the covering soil in the form of an aqueous suspension or emulsion at a water application rate equating to 600 to 800 l/ha, with addition of 0.2% wetting agent. After the treatment, the pots are placed in a greenhouse and kept under good growth conditions for the trial plants. The damage to the test plants is scored visually after a test period of 3 weeks by comparison with untreated controls (herbicidal activity in percent (%): 100% activity=the plants have died, 0% activity=like control plants). […] The tables below illustrate, in an exemplary manner, the […] herbicidal action of the compounds according to the invention, the herbicidal activity being stated in percent. [table] In the experiments that follow, herbicidal action of numerous inventive compounds and the known compounds that are structurally closest from D1 (WO 2012/028579 A1) and D2 (WO 2018/202535 A1) were compared under the above-specified conditions by the pre-emergence and post-emergence method. The example numbers given in the tables relate to the compounds disclosed in the respective documents. In addition to the compounds disclosed in D1 and D2, the following compounds V-1 to V-14 that are encompassed by D1 or D2 but are not compounds specified therein were used in the comparative experiments: • V-1: 2-(methylsulfanyl)-3-(methylsulfinyl)-N-(1-methyl-1H-tetrazol-5-yl)-4-(trifluoromethyl)benzamide • V-2: 2-(methylsulfanyl)-3-(methylsulfonyl)-N-(1-methyl-1H-tetrazol-5-yl)-4-(trifluoromethyl)benzamide • V-3: 2,3-bis(ethylsulfanyl)-N-(1-methyl-1H-tetrazol-5-yl)-4-(trifluoromethyl)benzamide • V-4: 2-chloro-3-(ethylsulfanyl)-N-(1-methyl-1H-tetrazol-5-yl)-4-(trifluoromethyl)benzamide • V-5: 2-chloro-4-iodo-3-(methylsulfanyl)-N-(1-methyl-1H-tetrazol-5-yl)benzamide • V-6: 2-chloro-4-iodo-3-(methylsulfinyl)-N-(1-methyl-1H-tetrazol-5-yl)benzamide • V-7: 2-chloro-4-iodo-3-(methylsulfonyl)-N-(1-methyl-1H-tetrazol-5-yl)benzamide • V-8: 2-bromo-3-(methylsulfanyl)-N-(1-methyl-1H-tetrazol-5-yl)-4-(trifluoromethyl)benzamide • V-9: 2-bromo-3-(methylsulfinyl)-N-(1-methyl-1H-tetrazol-5-yl)-4-(trifluoromethyl)benzamide • V-10: 2-bromo-3-(methylsulfonyl)-N-(1-methyl-1H-tetrazol-5-yl)-4-(trifluoromethyl)benzamide • V-11: 2-bromo-3-(ethylsulfanyl)-N-(1-methyl-1H-tetrazol-5-yl)-4-(trifluoromethyl)benzamide • V-12: 2-bromo-3-(ethylsulfinyl)-N-(1-methyl-1H-tetrazol-5-yl)-4-(trifluoromethyl)benzamide • V-13: 2-bromo-3-(ethylsulfonyl)-N-(1-methyl-1-1H-tetrazol-5-yl)-4-(trifluoromethyl)benzamide • V-14: 2-cyclopropyl-3-(ethylsulfanyl)-N-(1-methyl-1H-tetrazol-5-yl)-4-(trifluoromethyl)benzamide Herbicidal Pre-Emergence Action: […]

Cyperus esculentus = test: Pre-emergence herbicidal action, CYPES; set-up: key: % activity: 100 = plants have died, 0 = like control plants; details: comparative experiment
Source text: as §2

Echinochloa crus-galli [3] = test: Pre-emergence herbicidal action, ECHCG; details: Echinochloa crus-galli, 504 h, comparative experiment, 80 g of a.i./ha, read-out: Herbicidal action against ECHCG
Method in brief: as §1

Setaria viridis [4] = test: Pre-emergence herbicidal action, SETVI; set-up: key to Herbicidal action against SETVI: % activity: 100 = plants have died, 0 = like control plants; details: comparative experiment
Method in brief: as §1

Stellaria media [5] = test: Pre-emergence herbicidal action, STEME; set-up: key to Herbicidal action against STEME: % activity: 100 = plants have died, 0 = like control plants; details: comparative experiment, 80 g of a.i./ha
Method in brief: as §1

Viola tricolor [6] = test: Pre-emergence herbicidal action, VIOTR; set-up: key to Herbicidal action against VIOTR: % activity: 100 = plants have died, 0 = like control plants; details: comparative experiment, 80 g of a.i./ha
Method in brief: as §1

Abutilon theophrasti [7] = test: Post-emergence herbicidal action, ABUTH; set-up: key: % herbicidal action vs untreated; 100 = plants died, 0 = like control; details: comparative experiment, post-emergence, 20 g of a.i./ha
Method in brief: (§3)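 Treatment: post-emergence spray, one-leaf stage. Medium: sandy loam, greenhouse. Carrier: 600–800 l/ha water, 0.2% wetting agent. Read-out: visual % activity at ~3 weeks, untreated plants as reference.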

Amaranthus retroflexus = test: Post-emergence herbicidal action, AMARE; set-up: key: % herbicidal action vs untreated; 100 = plants died, 0 = like control; details: comparative experiment, post-emergence, 20 g of a.i./ha
Method in brief: as §3

Echinochloa crus-galli [8] = test: Post-emergence herbicidal action, ECHCG; set-up: key: % herbicidal action vs untreated; 100 = plants died, 0 = like control; details: comparative experiment, post-emergence, 20 g of a.i./ha
Method in brief: as §3

Matricaria inodora [9] = test: Post-emergence herbicidal action, MATIN; set-up: key: % herbicidal action vs untreated; 100 = plants died, 0 = like control; details: comparative experiment, post-emergence
Method in brief: as §3

Setaria viridis [10] = test: Post-emergence herbicidal action, SETVI; set-up: key: % herbicidal action vs untreated; 100 = plants died, 0 = like control; details: comparative experiment, post-emergence, 20 g of a.i./ha
Method in brief: as §3

Veronica persica [11] = test: Post-emergence herbicidal action, VERPE; set-up: key: % herbicidal action vs untreated; 100 = plants died, 0 = like control; details: comparative experiment, post-emergence
Method in brief: as §3

Viola tricolor [12] = test: Post-emergence herbicidal action, VIOTR; set-up: key: % herbicidal action vs untreated; 100 = plants died, 0 = like control; details: comparative experiment, post-emergence, 20 g of a.i./ha
Method in brief: as §3

Matricaria inodora [13] = test: Pre-emergence herbicidal action, MATIN; set-up: key to Herbicidal action against MATIN: % activity: 100 = plants have died, 0 = like control plants; details: comparative experiment, 20 g of a.i./ha
Method in brief: as §1

Veronica persica [14] = test: Pre-emergence herbicidal action, VERPE; set-up: key to Herbicidal action against VERPE: % activity: 100 = plants have died, 0 = like control plants; details: comparative experiment, 20 g of a.i./ha
Method in brief: as §1

Alopecurus myosuroides [15] = test: Post-emergence herbicidal action, ALOMY; set-up: key: % herbicidal action vs untreated; 100 = plants died, 0 = like control; details: comparative experiment, post-emergence, 5 g of a.i./ha
Method in brief: as §3

Avena fatua = test: Post-emergence herbicidal action, AVEFA; set-up: key: % herbicidal action vs untreated; 100 = plants died, 0 = like control; details: comparative experiment, post-emergence, 5 g of a.i./ha
Procedure: (§4) [table] 2. Post-Emergence Herbicidal Action Against Harmful Plants Seeds of monocotyledonous and dicotyledonous weed and crop plants are laid out in sandy loam soil in wood-fiber pots, covered with soil and cultivated in a greenhouse under good growth conditions. 2 to 3 weeks after sowing, the test plants are treated at the one-leaf stage. The compounds of the invention, formulated in the form of wettable powders (WP) or as emulsion concentrates (EC), are then sprayed onto the green parts of the plants in the form of an aqueous suspension or emulsion at a water application rate equating to 600 to 800 l/ha, with addition of 0.2% wetting agent. After the test plants have been left to stand in the greenhouse under optimal growth conditions for about 3 weeks, the action of the preparations is assessed visually in comparison to untreated controls (herbicidal action in percent (%): 100% activity=the plants have died, 0% activity=like control plants). […] The tables below illustrate, in an exemplary manner, the post-emergence herbicidal action of the compounds according to the invention, the herbicidal activity being stated in percent. In the experiments that follow, herbicidal action of numerous inventive compounds and the known compounds that are structurally closest from D1 (WO 2012/028579 A1) and D2 (WO 2018/202535 A1) were compared under the above-specified conditions by the pre-emergence and post-emergence method. The example numbers given in the tables relate to the compounds disclosed in the respective documents. In addition to the compounds disclosed in D1 and D2, the following compounds V-1 to V-14 that are encompassed by D1 or D2 but are not compounds specified therein were used in the comparative experiments: • V-1: 2-(methylsulfanyl)-3-(methylsulfinyl)-N-(1-methyl-1H-tetrazol-5-yl)-4-(trifluoromethyl)benzamide • V-2: 2-(methylsulfanyl)-3-(methylsulfonyl)-N-(1-methyl-1H-tetrazol-5-yl)-4-(trifluoromethyl)benzamide • V-3: 2,3-bis(ethylsulfanyl)-N-(1-methyl-1H-tetrazol-5-yl)-4-(trifluoromethyl)benzamide • V-4: 2-chloro-3-(ethylsulfanyl)-N-(1-methyl-1H-tetrazol-5-yl)-4-(trifluoromethyl)benzamide • V-5: 2-chloro-4-iodo-3-(methylsulfanyl)-N-(1-methyl-1H-tetrazol-5-yl)benzamide • V-6: 2-chloro-4-iodo-3-(methylsulfinyl)-N-(1-methyl-1H-tetrazol-5-yl)benzamide • V-7: 2-chloro-4-iodo-3-(methylsulfonyl)-N-(1-methyl-1H-tetrazol-5-yl)benzamide • V-8: 2-bromo-3-(methylsulfanyl)-N-(1-methyl-1H-tetrazol-5-yl)-4-(trifluoromethyl)benzamide • V-9: 2-bromo-3-(methylsulfinyl)-N-(1-methyl-1H-tetrazol-5-yl)-4-(trifluoromethyl)benzamide • V-10: 2-bromo-3-(methylsulfonyl)-N-(1-methyl-1H-tetrazol-5-yl)-4-(trifluoromethyl)benzamide • V-11: 2-bromo-3-(ethylsulfanyl)-N-(1-methyl-1H-tetrazol-5-yl)-4-(trifluoromethyl)benzamide • V-12: 2-bromo-3-(ethylsulfinyl)-N-(1-methyl-1H-tetrazol-5-yl)-4-(trifluoromethyl)benzamide • V-13: 2-bromo-3-(ethylsulfonyl)-N-(1-methyl-1-1H-tetrazol-5-yl)-4-(trifluoromethyl)benzamide • V-14: 2-cyclopropyl-3-(ethylsulfanyl)-N-(1-methyl-1H-tetrazol-5-yl)-4-(trifluoromethyl)benzamide Herbicidal Pre-Emergence Action: […]

Lolium multiflorum = test: Post-emergence herbicidal action, LOLMU; set-up: key: % herbicidal action: 100 = plants died, 0 = like control; details: comparative experiment, post-emergence, 5 g of a.i./ha
Procedure: as §4

Polygonum convolvulus = test: Post-emergence herbicidal action, POLCO; details: comparative experiment, post-emergence, 5 g of a.i./ha
Method in brief: as §3

Stellaria media [16] = test: Post-emergence herbicidal action, STEME; set-up: key: % herbicidal action vs untreated; 100 = plants died, 0 = like control; details: comparative experiment, post-emergence, 5 g of a.i./ha
Method in brief: as §3

Structure (SMILES): CC[S+]([O-])c1c(C(F)(F)F)ccc(C(=O)Nc2nnnn2C)c1Br (stereo not drawn) [Example V-12, 2-bromo-3-(ethylsulfinyl)-N-(1-methyl-1H-tetrazol-5-yl)-4-(trifluoromethyl)benzamide, reference compound]
- Herbicidal action against ABUTH (Abutilon theophrasti [1]; 80 g of a.i./ha): 0
- Herbicidal action against ALOMY (Alopecurus myosuroides [2]; 80 g of a.i./ha): 0
- Herbicidal action against CYPES (Cyperus esculentus; 80 g of a.i./ha): 0
- pest or weed control at 80 g/ha (Echinochloa crus-galli [3]): 0%
- Herbicidal action against SETVI (Setaria viridis [4]; 80 g of a.i./ha): 0
- Herbicidal action against STEME (Stellaria media [5]): 0
- Herbicidal action against VIOTR (Viola tricolor [6]): 0
- Herbicidal action against ABUTH (Abutilon theophrasti [7]): 0
- Herbicidal action against AMARE (Amaranthus retroflexus): 10
- Herbicidal action against ECHCG (Echinochloa crus-galli [8]): 0
- Herbicidal action against MATIN (Matricaria inodora [9]; 20 g of a.i./ha): 0
- Herbicidal action against SETVI (Setaria viridis [10]): 20
- Herbicidal action against VERPE (Veronica persica [11]; 20 g of a.i./ha): 0
- Herbicidal action against VIOTR (Viola tricolor [12]): 0

Structure (SMILES): CCSc1c(C(F)(F)F)ccc(C(=O)Nc2nnnn2C)c1Cl [Example V-4, 2-chloro-3-(ethylsulfanyl)-N-(1-methyl-1H-tetrazol-5-yl)-4-(trifluoromethyl)benzamide, reference compound]
- Herbicidal action against ABUTH (Abutilon theophrasti [1]; 20 g of a.i./ha): 0
- Herbicidal action against ALOMY (Alopecurus myosuroides [2]; 20 g of a.i./ha): 40
- Herbicidal action against CYPES (Cyperus esculentus; 20 g of a.i./ha): 0
- Herbicidal action against MATIN (Matricaria inodora [13]): 50
- Herbicidal action against SETVI (Setaria viridis [4]; 20 g of a.i./ha): 60
- Herbicidal action against VERPE (Veronica persica [14]): 80
- Herbicidal action against ALOMY (Alopecurus myosuroides [15]): 40
- Herbicidal action against AVEFA (Avena fatua): 30
- Herbicidal action against LOLMU (Lolium multiflorum): 10
- Herbicidal action against MATIN (Matricaria inodora [9]; 5 g of a.i./ha): 60
- Herbicidal action against POLCO (Polygonum convolvulus): 30
- Herbicidal action against STEME (Stellaria media [16]): 60
- Herbicidal action against VERPE (Veronica persica [11]; 5 g of a.i./ha): 80
